The results in this text go back to patent US7501431B2, “Physiologically active substances PF1270A, B and C substances” (Meui Seika Kaisha, Ltd., priority 2003, dated 2009).

One may read the IC50 as the concentration that inhibits the measured activity by half.

Like-named read-outs stand apart in the source and are kept apart here.

One series deals with T1, histamine H3 receptor (Rattus norvegicus, UniProt Q9QYN8).
T1 construct: Rat fore-brain was homogenized in 10 volumes of 0.32 M sucrose solution; from tissue; host or cells: rat fore-brain membrane fraction
T1 sequence (Q9QYN8 whole entry): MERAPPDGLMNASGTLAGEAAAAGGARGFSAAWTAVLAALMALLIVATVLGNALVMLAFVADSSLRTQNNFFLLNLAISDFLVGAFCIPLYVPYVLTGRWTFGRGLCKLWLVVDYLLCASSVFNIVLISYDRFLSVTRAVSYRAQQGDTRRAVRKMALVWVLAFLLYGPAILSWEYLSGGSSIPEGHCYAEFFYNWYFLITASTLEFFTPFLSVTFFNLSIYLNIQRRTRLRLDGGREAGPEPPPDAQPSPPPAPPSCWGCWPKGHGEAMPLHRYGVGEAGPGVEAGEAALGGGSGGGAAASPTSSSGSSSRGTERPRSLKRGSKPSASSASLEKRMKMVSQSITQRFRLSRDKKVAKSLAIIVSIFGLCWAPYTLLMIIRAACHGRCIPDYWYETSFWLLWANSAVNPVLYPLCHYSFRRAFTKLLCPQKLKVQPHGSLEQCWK
Kind of series: N^α-methylhistamine binding inhibition test ([3H]N^α-methylhistamine, rat fore-brain membrane fraction). The text has this: The PF1270A, B and C substances obtained by the invention have affinity for histamine H3 receptor. Affinity of the PF1270A, B and C substances for histamine H3 receptor was examined by a binding inhibition test of a histamine H3 receptor ligand, N^α-methylhistamine.
Test Example N^α-methylhistamine Binding Inhibition Activity
Rat fore-brain was homogenized in 10 volumes of 0.32 M sucrose solution using a Teflon-glass homogenizer, and the thus obtained homogenate was centrifuged at 1000×g for 10 minutes. The supernatant was centrifuged at 39000×g for 20 minutes to obtain the precipitate. This precipitate was washed with an assay buffer (50 mM Tris (pH 7.4), 5 mM EDTA) by centrifugation. This operation was further carried out twice, and the finally obtained membrane fraction was used as the histamine H3 receptor membrane fraction.
The binding inhibition test was carried out using the thus obtained membrane fraction and a radioactive ligand [^3H]N^α-methylhistamine (manufactured by Perkin-Elmer Life Science). In the presence of PF1270A, B or C substance, the membrane fraction (55 μg as protein) and 1 nM in final concentration of [^3H]N^α-methylhistamine were added to 150 μl of the assay buffer and incubated at room temperature for 60 minutes. This was filtered using a unifilter GF/B filter (manufactured by Perkin-Elmer) coated with 0.3% polyethyleneimine and washed three times with 200 μl of the assay buffer. After drying at 50° C. for 1 hour, 30 μl of Microscinti-20 (manufactured by Perkin-Elmer) was added thereto as the scintillator, and the radioactivity was counted using Top Count (manufactured by Perkin-Elmer). The nonspecific binding was determined by adding a large excess of thioperamide (10 μM in final concentration). The binding inhibition ratio of N^α-methylhistamine in the presence of PF1270A, B or C substance was calculated based on the following formula. […]

The nature of series [1]: Solubility (physicochemical properties).
The mark [2] stands for this setting: rat fore-brain histamine H3 receptor membrane fraction, 1 nM [3H]N^α-methylhistamine, room temperature 60 minutes, read-out: N^α-methylhistamine binding inhibition activity, IC50 (converted).

`CCCC(=O)OC1CC(C)N2CC3(NC)CC4(C(=O)Nc5c(C(=O)C6OC6(C)C)cccc54)C(C)(C=O)C3CC2C1` (stereo not drawn) [PF1270A]: the IC50 at histamine H3 receptor was 83.1 nM. Moreover, in series [1], the “Solubility in chloroform and methanol” value is “soluble”; the Solubility in water result is on record as “hardly soluble”.

`CCC(=O)OC1CC(C)N2CC3(NC)CC4(C(=O)Nc5c(C(=O)C6OC6(C)C)cccc54)C(C)(C=O)C3CC2C1` (stereo not drawn) [PF1270B]: the IC50 on histamine H3 receptor (setting [2]) was 399 nM. Also, in series [1], the “Solubility in chloroform and methanol” value is recorded as “soluble”; the Solubility in water entry was “hardly soluble”.

In the case of `CNC12CN3C(C)CC(OC(C)=O)CC3CC1C(C)(C=O)C1(C2)C(=O)Nc2c(C(=O)C3OC3(C)C)cccc21` (stereo not drawn) [PF1270C], the IC50 on histamine H3 receptor (setting [2]) was 763 nM. In series [1], the “Solubility in chloroform and methanol” value is “soluble”; the Solubility in water entry is on record as “hardly soluble”.
